This note sets out measurements from US6727237B2, “Inhibitors of bacterial NAD synthetase” (priority 1998, dated 2004).

Structures are written as SMILES.

In one assay the target is T1, bacterial NAD synthetase enzyme (Bacillus subtilis, UniProt P08164).
T1 sequence (P08164 2-272 limits assumed): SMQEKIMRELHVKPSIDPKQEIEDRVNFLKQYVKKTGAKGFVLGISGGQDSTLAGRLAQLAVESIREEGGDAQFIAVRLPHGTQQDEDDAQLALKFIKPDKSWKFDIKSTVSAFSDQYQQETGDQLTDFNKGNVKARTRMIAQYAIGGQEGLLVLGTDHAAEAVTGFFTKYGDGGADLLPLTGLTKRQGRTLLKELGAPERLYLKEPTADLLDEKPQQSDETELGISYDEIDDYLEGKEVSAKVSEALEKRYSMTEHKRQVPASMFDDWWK
The experiment in a line: biochemical. The assay is classed as biochemical.
Details: not given
For orientation: IC50 means the concentration at which inhibition is half-maximal. As usually defined, the inhibition is the relative decrease from the control value, in per cent. Lower therefore signals little suppression. On to `CC(C)c1ccc2[nH]c(CCCCOC(=O)c3ccc([N+](C)(C)C)cc3)cc2c1` [Compound 889], for which the IC50 came out at 75 µM and 100 µM produced 93.6% inhibition.

With `COC(=O)c1cc2ccccc2n1CCCCCCCCCOC(=O)c1ccc[n+](C)c1` [Compound 974], the IC50 is 35 µM and 100 µM produced 88.2% inhibition.

Regarding `C[n+]1cccc(CC(=O)OCCCCCCCc2cc3cc(C(=O)c4ccccc4)ccc3[nH]2)c1` [Compound 941], the 50% inhibitory concentration (IC50) came to 50 µM and the inhibition at 100 µM was determined as 100%.

Consider `CC(=O)c1ccc2[nH]c(CCCCCCCOC(=O)c3cccc([N+](C)(C)C)c3)cc2c1` [Compound 878], for which the IC50 was found to be 80 µM and the inhibition at 100 µM came out at 96.4%.

`CC(C)c1ccc2[nH]c(CCCCCCCCOC(=O)Cc3ccc[n+](C)c3)cc2c1` [Compound 936] registered an IC50 of 60 µM and an inhibition at 100 µM of 97.8%.

`C[N+](C)(C)c1ccc(CC(=O)OCCCCCCCCOc2ccc(OC(=O)c3ccccc3)cc2)cc1` [Compound 1082] yielded an IC50 of 50 µM and an inhibition at 200 µM of 81%.

In turn, `C[N+](C)(C)c1cccc(C(=O)OCCCCCCCc2cc3cc(Oc4ccccc4)ccc3[nH]2)c1` [Compound 872] showed an IC50 of 50 µM and an inhibition at 100 µM of 98.3%.

Consider `C[N+](C)(C)c1ccc(CC(=O)OCCCCCCCCCn2ccc3ccccc32)cc1` [Compound 982], for which the 50% inhibitory concentration (IC50) came out at 60 µM and the inhibition at 200 µM was found to be 93.7%.

In turn, `C[N+](C)(C)c1ccc(C(=O)OCCCCCCCc2cc3ccc(C(F)(F)F)cc3[nH]2)cc1` [Compound 884] registered an IC50 of 45 µM.

In turn, `CC(C)c1ccc2[nH]c(CCCCCCCCOC(=O)c3ccc([N+](C)(C)C)cc3)cc2c1` [Compound 891] yielded an IC50 of 80 µM and an inhibition at 250 µM of 99.9%.

The same assay, now with this note: compound at 0.05 mM.
By % Inhibition is commonly meant the relative decrease from the control value, in per cent. Regarding `COC(=O)c1cc2ccccc2n1CCCCCCCCCOC(=O)c1cccnc1` [Compound 950], the “% Inhibition” value amounted to 7.32%.

For the compound `COC(=O)c1cc2cc(OCc3ccccc3)ccc2n1CCCCCCCOC(=O)Cc1ccc(N(C)C)cc1` [Compound 964], the “% Inhibition” value worked out at 1.18%.

The same assay, now with this note: compound at 0.1 mM (Table 314).
On to `COC(=O)c1cc2ccccc2n1CCCCCCOC(=O)c1ccc[n+](C)c1` [Compound 971], for which the “% Inhibition” value is given as 100.00%.

In the case of `COC(=O)c1cc2cc(OCc3ccccc3)ccc2n1CCCCCCCCOC(=O)Cc1ccc(N(C)C)cc1` [Compound 965], the “% Inhibition” value was 8.48%.

On to `c1ccc(-c2ccc3[nH]c(CCCC[n+]4ccc5ccccc5c4)cc3c2)cc1` [Compound 541], for which the “% Inhibition” value worked out at 10.26%.

Take `CC(C)c1ccc2[nH]c(CCCCOC(=O)c3cc[n+](C)cc3)cc2c1` [Compound 904]: the “% Inhibition” value is 47.68%.

As to `CC(=O)c1ccc2[nH]c(CCCCCCCOC(=O)c3ccc(N(C)C)cc3)cc2c1` [Compound 637], the “% Inhibition” value amounted to 4.42%.

As to `COc1ccc2[nH]c(CCCCCCC[n+]3ccccc3)cc2c1` [Compound 376], the “% Inhibition” value came to 37.32%.

The assay is the same for the next values; noted with them: compound at 0.2 mM (Table 312A).
Turning to `COC(=O)c1ccc2[nH]c(CCCCCC[n+]3cccc4ccccc43)cc2c1` [Compound 489], the “% Inhibition” value is on record as 5.87%.

On to `c1ccc2c[n+](CCCCCCCc3cc4ccccc4[nH]3)ccc2c1` [Compound 502], for which the “% Inhibition” value was 44.08%.

In the case of `Fc1cc(F)c2[nH]c(CCCCCCCC[n+]3cccc4ccccc43)cc2c1` [Compound 413], the “% Inhibition” value is given as 4.76%.

As for `COc1ccc2c(ccn2CCCCCCOC(=O)c2ccc[n+](C)c2)c1` [Compound 762], the “% Inhibition” value is reported as 40.05%.

Turning to `O=C(c1ccccc1)c1ccc2[nH]c(CCCC[n+]3ccc4ccccc4c3)cc2c1` [Compound 571], the “% Inhibition” value stood at 17.47%.

As for `Cc1ccc2[nH]c(CCCCCCC[n+]3ccc4ccccc4c3)cc2c1` [Compound 514], the “% Inhibition” value was found to be 22.32%.

As for `O=C(c1ccccc1)c1ccc2[nH]c(CCCCCCCC[n+]3ccc4ccccc4c3)cc2c1` [Compound 575], the “% Inhibition” value came out at 42.01%.

Regarding `FC(F)(F)c1ccc2cc(CCCCCCCC[n+]3cccc4ccccc43)[nH]c2c1` [Compound 401], the “% Inhibition” value is on record as 14.26%.

In the case of `O=C(c1ccccc1)c1ccc2[nH]c(CCCCCCC[n+]3ccc4ccccc4c3)cc2c1` [Compound 574], the “% Inhibition” value is reported as 11.95%.

For `O=C(O)c1ccc2[nH]c(CCCC[n+]3ccc4ccccc4c3)cc2c1` [Compound 601], the “% Inhibition” value stood at 2.22%.

Turning to `O=C(c1ccccc1)c1ccc2[nH]c(CCC[n+]3ccccc3)cc2c1` [Compound 354], the “% Inhibition” value is given as 2.96%.

Take `COC(=O)c1ccc2[nH]c(CCCCCCC[n+]3cccc4ccccc43)cc2c1` [Compound 490]: the “% Inhibition” value is 2.96%.

As for `Fc1ccc2[nH]c(CCCCCCCC[n+]3ccc4ccccc4c3)cc2c1` [Compound 563], the “% Inhibition” value stood at 22.68%.

Turning to `O=C(O)c1ccc2[nH]c(CCCC[n+]3ccccc3)cc2c1` [Compound 385], the “% Inhibition” value worked out at 61.62%.

For the compound `O=[N+]([O-])c1cc([N+](=O)[O-])c2[nH]c(CCCCCCCC[n+]3cccc4ccccc43)cc2c1` [Compound 419], the “% Inhibition” value was 24.28%.

Turning to `C[N+](C)(C)c1ccc(CC(=O)OCCCCCCCn2ccc3ccccc32)cc1` [Compound 980], the “% Inhibition” value is on record as 74.86%.

For `CC(C)c1ccc2[nH]c(CCC[n+]3ccc4ccccc4c3)cc2c1` [Compound 534], the “% Inhibition” value turned out to be 26.99%.

As to `c1ccc(C(c2ccccc2)(c2ccccc2)c2ccc3[nH]c(CCCCCC[n+]4ccc5ccccc5c4)cc3c2)cc1` [Compound 555], the “% Inhibition” value is listed as 30.89%.

As for `Cc1ccc2[nH]c(CCC[n+]3ccc4ccccc4c3)cc2c1` [Compound 510], the “% Inhibition” value came to 20.99%.

Regarding `C[n+]1cccc(C(=O)OCCCCCCCCn2ccc3ccccc32)c1` [Compound 969], the “% Inhibition” value amounted to 83.16%.

In the case of `c1ccc2c[n+](CCCc3cc4ccccc4[nH]3)ccc2c1` [Compound 498], the “% Inhibition” value is listed as 47.31%.

Consider `c1ccc(Oc2ccc3[nH]c(CCC[n+]4ccccc4)cc3c2)cc1` [Compound 348], for which the “% Inhibition” value is 44.42%.

As for `FC(F)(F)c1ccc2cc(CCCCCC[n+]3cccc4ccccc43)[nH]c2c1` [Compound 399], the “% Inhibition” value worked out at 15.22%.

As to `C[N+](C)(C)c1ccc(CC(=O)OCCCCCCn2ccc3ccccc32)cc1` [Compound 979], the “% Inhibition” value is reported as 38.72%.

Consider `c1ccc(-c2ccc3[nH]c(CCCCCCCC[n+]4ccccc4)cc3c2)cc1` [Compound 329], for which the “% Inhibition” value is reported as 30.77%.

As for `COc1ccc2c(ccn2CCCCCOC(=O)Cc2ccc([N+](C)(C)C)cc2)c1` [Compound 741], the “% Inhibition” value came out at 30.47%.

On to `O=C(O)c1ccc2[nH]c(CCCCCC[n+]3cccc4ccccc43)cc2c1` [Compound 495], for which the “% Inhibition” value amounted to 6.80%.

In the case of `C[n+]1cccc(C(=O)OCCCCCCCn2ccc3ccccc32)c1` [Compound 968], the “% Inhibition” value was 88.52%.

Turning to `O=C(O)c1ccc2[nH]c(CCCCCCC[n+]3ccccc3)cc2c1` [Compound 388], the “% Inhibition” value is reported as 25.86%.

On to `c1ccc(-c2ccc3[nH]c(CCCCCCC[n+]4ccc5ccccc5c4)cc3c2)cc1` [Compound 544], for which the “% Inhibition” value worked out at 19.66%.

Turning to `O=C(OCCCCCCCc1cc2cc(Oc3ccccc3)ccc2[nH]1)c1cccnc1` [Compound 685], the “% Inhibition” value was found to be 7.81%.

The same assay, now with this note: compound at 0.2 mM (Table 312B).
`COc1ccccc1OCCCCCCCCOC(=O)Cc1ccc(N(C)C)cc1` [Compound 1039]: the “% Inhibition” value amounted to 30%.

Turning to `CN(C)c1ccc(CC(=O)OCCCCCCCCOc2ccccc2C=CC(=O)c2ccccc2)cc1` [Compound 1038], the “% Inhibition” value is given as 22%.

For the compound `O=C(OCCCCCCCCOc1ccc(N2C(=O)c3ccccc3C2=O)cc1)c1cccnc1` [Compound 1017], the “% Inhibition” value is 23%.

As to `C[N+](C)(C)c1ccc(CC(=O)OCCCCCCCCOc2ccccc2N2CCOCC2)cc1` [Compound 1093], the “% Inhibition” value turned out to be 66%.

For `C[n+]1cccc(C(=O)OCCCCCCCCOc2ccccc2C(=O)Nc2ccccc2)c1` [compound 3054], the “% Inhibition” value turned out to be 86%.

In the case of `CC(=O)c1cccc(OCCCCCCCCOC(=O)Cc2ccc([N+](C)(C)C)cc2)c1` [Compound 1089], the “% Inhibition” value was found to be 56%.

`CC(=O)N1CCN(c2ccc(OCCCCCCCCOC(=O)Cc3ccc(N(C)C)cc3)cc2)CC1` [Compound 1025]: the “% Inhibition” value was determined as 15%.

In the case of `CN(C)c1ccc(CC(=O)OCCCCCCCCOc2cccc(N3CCOCC3)c2)cc1` [Compound 1045], the “% Inhibition” value was determined as 14%.

The assay is the same for the next values; noted with them: compound at 0.25 mM.
`C[n+]1cccc(C(=O)OCCCCCCCCc2cc3cc(Oc4ccccc4)ccc3[nH]2)c1` [Compound 918]: the “% Inhibition” value is recorded as 98.6%.

For `C[N+](C)(C)c1ccc(C(=O)OCCCCCCCCc2cc3cc(C(=O)c4ccccc4)ccc3[nH]2)cc1` [Compound 897], the “% Inhibition” value was 50.9%.

For the compound `C[N+](C)(C)c1cccc(C(=O)OCCCCc2cc3cc(Oc4ccccc4)ccc3[nH]2)c1` [Compound 871], the “% Inhibition” value is 81.9%.

`CC(=O)c1ccc2[nH]c(CCCCCCCOC(=O)Cc3ccc[n+](C)c3)cc2c1` [Compound 938]: the “% Inhibition” value is on record as 98.8%.

As to `C[N+](C)(C)c1cccc(C(=O)OCCCCCCCCc2cc3cc(Oc4ccccc4)ccc3[nH]2)c1` [Compound 873], the “% Inhibition” value was 98.0%.

On to `C[N+](C)(C)c1ccc(C(=O)OCCCCCCCCc2cc3cc(Oc4ccccc4)ccc3[nH]2)cc1` [Compound 888], for which the “% Inhibition” value came to 99.0%.

On to `CC(=O)c1ccc2[nH]c(CCCCOC(=O)Cc3ccc[n+](C)c3)cc2c1` [Compound 937], for which the “% Inhibition” value is reported as 88.8%.

Regarding `CC(C)c1ccc2[nH]c(CCCCOC(=O)c3ccc[n+](C)c3)cc2c1` [Compound 919], the “% Inhibition” value worked out at 90.2%.
